From PubChem BioAssay (NCI)
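Each compound was tested at five concentrations against cells in 96-well plates for 48 hours. GI50 = concentration required for 50% inhibition of growth. At the TGI there is no net growth.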 *1 amine or outer side, *2 acyl side, *3 side chain or, on linkers, in order; H or OH if unused. Where a SMILES comes first, the peptide text is derived from it. Bridges are numbered along the chain shown (N, C = ends). Roman numbers before positions name the chains, in order. [ ]: non-standard residue; d: D form. ξ: configuration not given here. X54 = N=C(N)NCCC[C@@H](NC(=N)CCCCCCC(=N)N[C@H](CCCNC(=N)N)C(=O)[*:2])C(=O)[*:1]; dIgl = N[C@@H](C(=O)O)C1Cc2ccccc2C1; Hyp = O=C(O)[C@@H]1C[C@@H](O)CN1; ξIgl = NC(C(=O)O)C1Cc2ccccc2C1; ξOic = O=C(O)C1CC2CCCCC2N1; ξR = N=C(N)NCCCC(N)C(=O)O; ξP = O=C(O)C1CCCN1; ξS = NC(CO)C(=O)O

Experiments:
Experiment in all cases: inhibition of tumour cell growth, NCI panel, 48 h
DU-145 prostate = system: DU-145 prostate
OVCAR-4 ovarian = system: OVCAR-4 ovarian
U251 CNS = system: U251 CNS
HS 578T breast = system: HS 578T breast
RPMI-8226 leukemia = system: RPMI-8226 leukemia
HCT-116 colon = system: HCT-116 colon
LOX IMVI melanoma = system: LOX IMVI melanoma
HCC-2998 colon = system: HCC-2998 colon

| Structure (SMILES) | TGI (DU-145 prostate) [µM] | TGI (OVCAR-4 ovarian) [µM] | TGI (U251 CNS) [µM] | TGI (HS 578T breast) [µM] | TGI (RPMI-8226 leukemia) [µM] | TGI (HCT-116 colon) [µM] | TGI (LOX IMVI melanoma) [µM] | TGI (HCC-2998 colon) [µM] | GI50 (HCC-2998 colon) [µM] | GI50 (DU-145 prostate) [µM] | GI50 (U251 CNS) [µM] | GI50 (HS 578T breast) [µM] | GI50 (RPMI-8226 leukemia) [µM] | GI50 (HCT-116 colon) [µM] | GI50 (LOX IMVI melanoma) [µM] |
| --- | --- | --- | --- | --- | --- | --- | --- | --- | --- | --- | --- | --- | --- | --- | --- |
| O=C1c2cc(I)ccc2N2CCN=C2N1Cc1ccccc1 | > 100 | > 100 | > 100 | > 100 | > 100 | > 100 | > 100 | – | – | – | – | – | – | – | – |
| CCC(=O)Nc1cccc(N=Cc2ccc(OC(=O)/C=C\c3ccccc3)cc2)c1 | > 75 | > 75 | – | > 75 | > 75 | > 75 | > 75 | > 75 | – | – | – | – | – | – | – |
| O=c1cc(-c2ccccc2)[nH]c2ncccc12 | > 100 | > 100 | – | – | > 100 | > 54 | > 100 | > 42 | – | – | – | – | – | – | – |
| COc1ccc(-n2c(SC(CN3CCOCC3)CN3CCCC3=O)nc3ccccc3c2=O)cc1 (centres undefined) | > 100 | > 100 | > 100 | > 100 | > 100 | > 100 | – | > 100 | – | – | – | – | – | – | – |
| Cc1cc2nc3c(C#N)c4c(c(Nc5ccc(F)cc5)n3c2cc1C)CCC4 | > 100 | > 100 | > 100 | > 100 | > 100 | > 100 | > 100 | – | – | – | – | – | – | – | – |
| Cc1nn(C(=O)c2ccccc2O)c2c1C(c1ccc(O)cc1O)SC(N)=N2 (centres undefined) | > 10 | > 10 | > 10 | 8.84 | > 10 | > 10 | > 10 | – | – | – | – | – | – | – | – |
| CN1CCN(C(=O)CCC(=O)Nc2cc3c(c4ccccc24)-c2ccc4ccccc4c2C3)CC1 | 3.52 | 3.08 | 4.11 | 5.81 | – | 2.95 | 4.04 | 2.7 | – | – | – | – | – | – | – |
| N#Cc1c(N)oc(-c2ccc([N+](=O)[O-])cc2)c1C#N | 59.3 | – | > 100 | 82.8 | > 100 | > 100 | > 100 | > 100 | – | – | – | – | – | – | – |
| Cc1cc2cc3cc(C)c(N)cc3nc2cc1N | 1.87 | 1.49 | – | 10.5 | 1.31 | 1.31 | 2.11 | – | – | – | – | – | – | – | – |
| CCOC(=O)/C=C/C(=O)O/C=C/[N+](=O)[O-] | > 100 | – | > 100 | > 100 | > 100 | > 100 | > 100 | > 100 | – | – | – | – | – | – | – |
| O=C1c2ccccc2C(=O)N1n1c(Cc2ccc(Cl)cc2)n[nH]c1=O | > 100 | > 100 | > 100 | > 100 | – | > 100 | > 100 | > 100 | – | – | – | – | – | – | – |
| O=C(CN1CCCC1=O)CS(=O)(=O)c1ccccc1 | > 100 | – | > 100 | > 100 | > 100 | > 100 | > 100 | > 100 | – | – | – | – | – | – | – |
| Cc1ccc(Cc2cc(N3CCN(c4cccc(Cl)c4)CC3)nnc2C)cc1 | > 100 | > 100 | > 100 | > 100 | > 100 | > 100 | – | – | – | – | – | – | – | – | – |
| COc1ccc2nc3c([N+](=O)[O-])ccc(NCCN(C)C)c3c(N)c2c1 | 3.17 | 2.95 | 3.13 | 4.5 | 0.557 | 0.296 | 1.08 | – | – | – | – | – | – | – | – |
| Cn1c(-c2ccc(-c3cc(-c4cccs4)c(-c4cccs4)n3C)cc2)cc(-c2cccs2)c1-c1cccs1 | > 100 | > 100 | > 100 | > 100 | > 100 | > 100 | – | > 100 | – | – | – | – | – | – | – |
| COC1=C[C@]2(CCC(=O)O2)[C@@H]2Cc3ccccc3[C@H](O)[C@@H]2C1=O | – | > 100 | 79.6 | > 100 | 38.5 | > 100 | 87.3 | > 100 | – | – | – | – | – | – | – |
| COc1ccc2c(c1)CC[C@@H]1C2CC[C@]2(C)C(=O)N(CCN(C)C)C(=O)CC12 (some centres undefined) | > 100 | > 100 | > 100 | > 100 | – | > 100 | – | > 100 | – | – | – | – | – | – | – |
| CC(=O)C1=C(C)O[C@@H]2O[C@H](COCc3ccccc3)[C@@H](OCc3ccccc3)[C@H](O)[C@@H]2S1 | 58.9 | 73.7 | 38.5 | 39.9 | 42.6 | 32 | 38.9 | – | – | – | – | – | – | – | – |
| Cc1ccccc1NC(=O)Cc1csc(N/N=C2\NC(=O)/C(=C/c3cccc([N+](=O)[O-])c3)S2)n1 | > 100 | 44.2 | 53.8 | – | – | > 100 | > 100 | 27.3 | – | – | – | – | – | – | – |

| Structure (SMILES) | TGI (DU-145 prostate) [µM] | TGI (OVCAR-4 ovarian) [µM] | TGI (U251 CNS) [µM] | TGI (HS 578T breast) [µM] | TGI (RPMI-8226 leukemia) [µM] | TGI (HCT-116 colon) [µM] | TGI (LOX IMVI melanoma) [µM] | TGI (HCC-2998 colon) [µM] | GI50 (HCC-2998 colon) [µM] | GI50 (DU-145 prostate) [µM] | GI50 (U251 CNS) [µM] | GI50 (HS 578T breast) [µM] | GI50 (RPMI-8226 leukemia) [µM] | GI50 (HCT-116 colon) [µM] | GI50 (LOX IMVI melanoma) [µM] |
| --- | --- | --- | --- | --- | --- | --- | --- | --- | --- | --- | --- | --- | --- | --- | --- |
| CC#C[C@]1(O)CCC2[C@@H]3CCC4=CC(=O)CCC4=C3[C@@H](c3ccc(N(C)C)cc3)C[C@@]21C (some centres undefined) | 73.1 | 33.5 | 35.2 | 33.9 | 7.15 | 39.6 | 33.7 | – | – | – | – | – | – | – | – |
| N=C(N)NCCCC(NC(=O)C1CC2CCCCC2N1C(=O)[C@H](NC(=O)C(CO)NC(=O)C(NC(=O)CNC(=O)[C@@H]1C[C@@H](O)CN1C(=O)C1CCCN1C(=O)C(CCCNC(=N)N)NC(=O)[C@@H](CCCNC(=N)N)NC(=N)CCCCCCC(=N)N[C@H](CCCNC(=N)N)C(=O)NC(CCCNC(=N)N)C(=O)N1CCCC1C(=O)N1C[C@H](O)C[C@H]1C(=O)NCC(=O)NC(C(=O)NC(CO)C(=O)N[C@@H](C(=O)N1C(C(=O)NC(CCCNC(=N)N)C(=O)O)CC2CCCCC21)C1Cc2ccccc2C1)C1Cc2ccccc2C1)C1Cc2ccccc2C1)C1Cc2ccccc2C1)C(=O)O (some centres undefined) (I: [ξR][ξP][Hyp]G[ξIgl][ξS][dIgl][ξOic][ξR]-OH / II: [ξR][ξP][Hyp]G[ξIgl][ξS][dIgl][ξOic][ξR]-OH; linker I:N-II:N via X54) | 3.06 | 4.56 | 5.35 | 6.82 | 4.48 | > 10 | 4.94 | – | – | – | – | – | – | – | – |
| O=C(NC(=S)Nc1ccc([N+](=O)[O-])cc1)c1ccc2c(c1)Sc1ccccc1O2 | > 100 | – | > 100 | 79 | – | > 100 | > 100 | – | – | – | – | – | – | – | – |
| CN(C)CN1CSC(=S)N(CN(C)C)C1 | > 100 | > 100 | > 100 | > 100 | – | > 100 | > 100 | > 100 | – | – | – | – | – | – | – |
| Clc1cc(-c2ccccc2)nc(Nc2nc3ccccc3[nH]2)n1 | > 100 | 33 | 30.7 | 80.2 | > 100 | > 100 | – | – | – | – | – | – | – | – | – |
| CN(c1ccccc1)S(=O)(=O)c1ccc([N+](=O)[O-])cc1 | > 100 | > 100 | > 100 | – | > 100 | > 100 | > 100 | – | – | – | – | – | – | – | – |
| Cc1ncc([N+](=O)[O-])n1CC[N+](C)([O-])CCCCn1ccnc1[N+](=O)[O-] (centres undefined) | > 100 | > 100 | > 100 | > 100 | > 100 | > 100 | > 100 | – | – | – | – | – | – | – | – |
| Fc1ccc(-c2sc(-c3ccsc3)cc2Cc2ccsc2)cc1 | > 10 | > 10 | – | – | > 10 | – | > 10 | > 10 | – | – | – | – | – | – | – |
| COC(=O)Nc1nc2ccc(S(=O)(=O)Nc3ccccn3)cc2[nH]1 | > 100 | > 100 | > 100 | > 100 | 40.6 | > 100 | > 100 | – | – | – | – | – | – | – | – |
| COc1cc(CC(C)=O)cc(OC)c1 | > 100 | > 100 | > 100 | – | > 100 | > 100 | – | > 100 | – | – | – | – | – | – | – |
| CC(=O)OCC1OC(N2C(=O)NC(=O)C3C=C4CCCCC4=CC32)CC1OC(C)=O (centres undefined) | > 100 | > 100 | > 100 | > 100 | > 100 | > 100 | > 100 | – | – | – | – | – | – | – | – |
| COC(=O)CNC(=O)C(Cc1ccccc1)NC(=O)c1ccc(-c2ccc(Cl)cc2Cl)o1 (centres undefined) | > 100 | > 100 | > 100 | 52.1 | 51.9 | 43.2 | 69 | – | – | – | – | – | – | – | – |
| COc1cc(C2c3cc4c(cc3OC(NNC(N)=O)C2C)OCO4)cc(OC)c1OC (centres undefined) | > 100 | > 100 | – | > 64.9 | > 58.1 | > 36.5 | > 100 | > 27.2 | – | – | – | – | – | – | – |
| O=C(c1ccccc1)N1CCN(C(=S)NC2CCCCC2)C1=S | 57.9 | 40.8 | 21.6 | 50.3 | – | 32.6 | 31.1 | 33.1 | – | – | – | – | – | – | – |
| O=c1[nH]c(=O)c2ncn(-c3ccc([N+](=O)[O-])cn3)c2[nH]1 | > 100 | > 100 | > 100 | – | > 100 | > 100 | > 100 | > 100 | – | – | – | – | – | – | – |
| CNC(=O)N(CCC#N)CCN(C(=O)NC)c1ccccc1 | > 100 | > 100 | > 100 | – | > 100 | > 100 | > 100 | > 100 | – | – | – | – | – | – | – |
| CCOC(=O)c1[nH]cc(C)c1-c1cccn1-c1ccc(Cl)cc1[N+](=O)[O-] | > 100 | > 100 | 33.1 | 51.2 | – | 30.4 | 31.3 | 66.3 | – | – | – | – | – | – | – |
| COc1ccc2c(c1)N(Cc1ccc(Cl)cc1)CCC2N1CCCC1=O (centres undefined) | > 100 | – | 59.6 | 26.5 | 12.8 | > 100 | > 100 | > 100 | 5.32 | 2.66 | 3.28 | 2.76 | 1.46 | 5.24 | 3.54 |
